In patent US20250034167A1, “HETEROCYCLIC COMPOUNDS AND METHODS OF USE” (AMGEN INC., priority 2021, published 2025):

test system: Phosphorylation of ERK1/2 in AsPC-1 cells; assay: Phospho-ERK1/2 MSD Assay; type: cell-based; details: Homo sapiens, ASPC1, 2 h, read-out: 2 h p-ERK (AsPC-1 cells), IC50, AsPC-1 cells, 2 h compound treatment
Description: Sixteen hours prior to compound treatment, AsPC-1 cells were seeded in 96-well cell culture plates at a density of 25,000 cells/well and incubated at 37° C., 5% CO2. A compound dose-response titration was diluted in growth media, added to appropriate wells of a cell culture plate, and then incubated at 37° C., 5% CO2 for 2 hours.

IC50 [nM]	SMILES
341	CCc1c(F)ccc2cccc(-c3ncc4c(N5CCC[C@@](C)(O)C5)nc(OC[C@@]56CCCN5C[C@H](F)C6)nc4c3F)c12 [Example 48, (R)-1-(7-(8-Ethyl-7-fluoronaphthalen-1-yl)-8-fluoro-2-(((2R,7aS)-2-fluorotetrahydro-1H-pyrrolizin-7a(5H)-yl)methoxy)pyrido[4,3-d]pyrimidin-4-yl)-3-methylpiperidin-3-ol]
2710	CCc1c(F)ccc2cc(O)cc(-c3ncc4c(N5CCC[C@@H](NC(=S)NCCOC)C5)nc(OC[C@@]56CCCN5C[C@H](F)C6)nc4c3F)c12 [Example 74, 1-((R)-1-(7-(8-ethyl-7-fluoro-3-hydroxynaphthalen-1-yl)-8-fluoro-2-(((2R,7aS)-2-fluorotetrahydro-1H-pyrrolizin-7a(5H)-yl)methoxy)pyrido[4,3-d]pyrimidin-4-yl)piperidin-3-yl)-3-(2-methoxyethyl)thiourea]
1100	CCc1c(F)ccc2cc(O)cc(-c3ncc4c(N5CCC[C@@](C)(NC(C)=O)C5)nc(OC[C@@]56CCCN5C[C@H](F)C6)nc4c3F)c12 [Example 76, N-((R)-1-(7-(8-Ethyl-7-fluoro-3-hydroxynaphthalen-1-yl)-8-fluoro-2-(((2R,7aS)-2-fluorotetrahydro-1H-pyrrolizin-7a(5H)-yl)methoxy)pyrido[4,3-d]pyrimidin-4-yl)-3-methylpiperidin-3-yl)acetamide]
1530	CCc1c(F)ccc2cc(O)cc(-c3ncc4c(N5CCC[C@@](C)(NC(=O)OC)C5)nc(OC[C@@]56CCCN5C[C@H](F)C6)nc4c3F)c12 [Example 77, Methyl ((R)-1-(7-(8-ethyl-7-fluoro-3-hydroxynaphthalen-1-yl)-8-fluoro-2-(((2R,7aS)-2-fluorotetrahydro-1H-pyrrolizin-7a(5H)-yl)methoxy)pyrido[4,3-d]pyrimidin-4-yl)-3-methylpiperidin-3-yl)carbamate]
5130	CCc1c(F)ccc2cc(O)cc(-c3ncc4c(N5CC(n6ccnc6)C5)nc(OC[C@@]56CCCN5C[C@H](F)C6)nc4c3F)c12 [Example 91, 4-(4-(3-(1H-Imidazol-1-yl)azetidin-1-yl)-8-fluoro-2-(((2R,7aS)-2-fluorotetrahydro-1H-pyrrolizin-7a(5H)-yl)methoxy)pyrido[4,3-d]pyrimidin-7-yl)-5-ethyl-6-fluoronaphthalen-2-ol]
8	CCc1c(F)ccc2cc(O)cc(-c3ncc4c(N5CCCCC(=O)C5)nc(OC[C@@]56CCCN5C[C@H](F)C6)nc4c3F)c12 [Example 127, 1-(7-(8-Ethyl-7-fluoro-3-hydroxynaphthalen-1-yl)-8-fluoro-2-(((2R,7aS)-2-fluorotetrahydro-1H-pyrrolizin-7a(5H)-yl)methoxy)pyrido[4,3-d]pyrimidin-4-yl)azepan-3-one]
293	CCc1c(F)ccc2cc(O)cc(-c3ncc4c(N5CCC[C@@H](CO)C5)nc(OC[C@@]56CCCN5C[C@H](F)C6)nc4c3F)c12 [Example 128, 5-Ethyl-6-fluoro-4-(8-fluoro-2-(((2R,7aS)-2-fluorotetrahydro-1H-pyrrolizin-7a(5H)-yl)methoxy)-4-((R)-3-(hydroxymethyl)piperidin-1-yl)pyrido[4,3-d]pyrimidin-7-yl)naphthalen-2-ol]
172	CCc1c(F)ccc2cc(O)cc(-c3ncc4c(N5CCCC(O)(C(F)(F)F)C5)nc(OC[C@@]56CCCN5C[C@H](F)C6)nc4c3F)c12 (stereo partly drawn) [Example 156, 1-(7-(8-Ethyl-7-fluoro-3-hydroxy-naphthalen-1-yl)-8-fluoro-2-(((2R,7aS)-2-fluorotetrahydro-1H-pyrrolizin-7a(5H)-yl)methoxy)pyrido[4,3-d]pyrimidin-4-yl)-3-(trifluoromethyl) piperidin-3-ol]
1240	CCc1c(F)ccc2cc(O)cc(-c3ncc4c(N5CCCC(O)(C6CC6)C5)nc(OC[C@@]56CCCN5C[C@H](F)C6)nc4c3F)c12 (stereo partly drawn) [Example 157, 3-Cyclopropyl-1-(7-(8-ethyl-7-fluoro-3-hydroxy-naphthalen-1-yl)-8-fluoro-2-(((2R,7aS)-2-fluorotetrahydro-1H-pyrrolizin-7a(5H)-yl)methoxy)pyrido[4,3-d]pyrimidin-4-yl)piperidin-3-ol]
1160	NS(=O)(=O)[C@@H]1CCCN(c2nc(OC[C@@]34CCCN3C[C@H](F)C4)nc3c(F)c(-c4cc(O)cc5ccc(F)c(F)c45)ncc23)C1 [Example 165, (R)-1-(7-(7,8-Difluoro-3-hydroxynaphthalen-1-yl)-8-fluoro-2-(((2R,7aS)-2-fluorotetrahydro-1H-pyrrolizin-7a(5H)-yl)methoxy)pyrido[4,3-d]pyrimidin-4-yl)piperidine-3-sulfonamide]
34	CCc1c(F)ccc2cc(O)cc(-c3ncc4c(N5CCC[C@@](C)(O)C5)nc(OC[C@@]56CCCN5C[C@H](F)C6)nc4c3Cl)c12 [Example 168, (R)-1-(8-Chloro-7-(8-ethyl-7-fluoro-3-hydroxynaphthalen-1-yl)-2-(((2R,7aS)-2-fluorotetrahydro-1H-pyrrolizin-7a(5H)-yl)methoxy)pyrido[4,3-d]pyrimidin-4-yl)-3-methylpiperidin-3-ol]
18	CCc1c(F)ccc2cc(O)cc(-c3cc4nc(OC[C@@]56CCCN5C[C@H](F)C6)nc(N5CCC[C@@](C)(O)C5)c4cn3)c12 [Example 170, (R)-1-(7-(8-Ethyl-7-fluoro-3-hydroxynaphthalen-1-yl)-2-(((2R,7aS)-2-fluorotetrahydro-1H-pyrrolizin-7a(5H)-yl)methoxy)pyrido[4,3-d]pyrimidin-4-yl)-3-methyl-piperidin-3-ol]

More lines, now with the values behind:

SMILES	IC50 [nM]
CCc1c(F)ccc2cc(O)cc(-c3ncc4c(N5CCC[C@](C)(N)C5)nc(OC[C@@]56CCCN5C[C@H](F)C6)nc4c3F)c12 [Example 45, 4-(4-((S)-3-Amino-3-methylpiperidin-1-yl)-8-fluoro-2-(((2R,7aS)-2-fluorotetrahydro-1H-pyrrolizin-7a(5H)-yl)methoxy)pyrido[4,3-d]pyrimidin-7-yl)-5-ethyl-6-fluoronaphthalen-2-ol]	2960
CCc1c(F)ccc2cc(O)cc(-c3ncc4c(N5CC[C@H](F)[C@H](O)C5)nc(OC[C@@]56CCCN5C[C@H](F)C6)nc4c3F)c12 [Example 47, (3R,4S)-1-(7-(8-Ethyl-7-fluoro-3-hydroxynaphthalen-1-yl)-8-fluoro-2-(((2R,7aS)-2-fluorotetrahydro-1H-pyrrolizin-7a(5H)-yl)methoxy)pyrido[4,3-d]pyrimidin-4-yl)-4-fluoropiperidin-3-ol]	222
C[C@@]1(O)CCCN(c2nc(OC[C@@]34CCCN3C[C@H](F)C4)nc3c(F)c(-c4cc(O)cc5ccc(F)c(F)c45)ncc23)C1 [Example 59, (R)-1-(7-(7,8-Difluoro-3-hydroxynaphthalen-1-yl)-8-fluoro-2-(((2R,7aS)-2-fluorotetrahydro-1H-pyrrolizin-7a(5H)-yl)methoxy)pyrido[4,3-d]pyrimidin-4-yl)-3-methylpiperidin-3-ol]	33
CCc1c(F)ccc2cc(O)cc(-c3ncc4c(N5CC6CC5C(C)(O)C6)nc(OC[C@@]56CCCN5C[C@H](F)C6)nc4c3F)c12 (stereo partly drawn) [Example 71, 2-(7-(8-Ethyl-7-fluoro-3-hydroxynaphthalen-1-yl)-8-fluoro-2-(((2R,7aS)-2-fluorotetrahydro-1H-pyrrolizin-7a(5H)-yl)methoxy)pyrido[4,3-d]pyrimidin-4-yl)-6-methyl-2-azabicyclo[2.2.1]heptan-6-ol]	1170
CCc1c(F)ccc2cc(O)cc(-c3ncc4c(N5CCC[C@@H](NC(=O)OC)C5)nc(OC[C@@]56CCCN5C[C@H](F)C6)nc4c3F)c12 [Example 78, Methyl ((R)-1-(7-(8-ethyl-7-fluoro-3-hydroxynaphthalen-1-yl)-8-fluoro-2-(((2R,7aS)-2-fluorotetrahydro-1H-pyrrolizin-7a(5H)-yl)methoxy)pyrido[4,3-d]pyrimidin-4-yl)piperidin-3-yl)carbamate]	244
CCc1c(F)ccc2cc(O)cc(-c3ncc4c(N5CCCC(=O)CC5)nc(OC[C@@]56CCCN5C[C@H](F)C6)nc4c3F)c12 [Example 95, 1-(7-(8-Ethyl-7-fluoro-3-hydroxynaphthalen-1-yl)-8-fluoro-2-(((2R,7aS)-2-fluorotetrahydro-1H-pyrrolizin-7a(5H)-yl)methoxy)pyrido[4,3-d]pyrimidin-4-yl)azepan-4-one]	74
CCc1c(F)ccc2cc(O)cc(-c3ncc4c(N5CCC=CC(=O)C5)nc(OC[C@@]56CCCN5C[C@H](F)C6)nc4c3F)c12 [Example 134, 1-(7-(8-Ethyl-7-fluoro-3-hydroxynaphthalen-1-yl)-8-fluoro-2-(((2R,7aS)-2-fluorotetrahydro-1H-pyrrolizin-7a(5H)-yl)methoxy)pyrido[4,3-d]pyrimidin-4-yl)-1,2,6,7-tetrahydro-3H-azepin-3-one]	259
CCc1c(F)ccc2cc(O)cc(-c3ncc4c(N5CCC[C@@](C)(O)C5)nc(OC[C@@]56CCCN5C[C@H](F)C6)nc4c3C)c12 [Example 169, (R)-1-(7-(8-Ethyl-7-fluoro-3-hydroxynaphthalen-1-yl)-2-(((2R,7aS)-2-fluorotetrahydro-1H-pyrrolizin-7a(5H)-yl)methoxy)-8-methylpyrido[4,3-d]pyrimidin-4-yl)-3-methylpiperidin-3-ol]	40

same assay, conditions: Homo sapiens, ASPC1, read-out: 2 h p-ERK (AsPC-1 cells), IC50; AsPC-1 cells, 2 h compound treatment

SMILES	IC50 [nM]
CCc1c(F)ccc2cc(O)cc(-c3ncc4c(N5CCC[C@@](C)(O)C5)nc(OC[C@@]56CCCN5C[C@H](F)C6)nc4c3F)c12 [Example 38, (R)-1-(7-(8-ethyl-7-fluoro-3-hydroxynaphthalen-1-yl)-8-fluoro-2-(((2R,7aS)-2-fluorotetrahydro-1H-pyrrolizin-7a(5H)-yl)methoxy)pyrido[4,3-d]pyrimidin-4-yl)-3-methyl-piperidin-3-ol]	5
CCc1c(F)ccc2cc(O)cc(-c3ncc4c(N5CCC[C@@](C)(O)C5)nc(OC[C@]56CCCN5C[C@H](F)C6)nc4c3F)c12 [Example 53, (R)-1-(7-(8-ethyl-7-fluoro-3-hydroxynaphthalen-1-yl)-8-fluoro-2-(((2R,7aR)-2-fluorotetrahydro-1H-pyrrolizin-7a(5H)-yl)methoxy)pyrido[4,3-d]pyrimidin-4-yl)-3-methylpiperidin-3-ol]	13
